Patent US4301065A, “Novel polypeptides having thymic activity or an antagonistic activity and processes for their synthesis” (Agence Nationale de Valorisation de la Recherche (ANVAR), priority 1977, dated 1981)
Converted amounts (≈) assume the structure as drawn. Values belong to the compound of their own block, whether it stands above or below them. Square brackets hold non-standard residues; d marks the D form. Ends that are not written are not given here. Peptide text beside a SMILES is read from it. pGlu = O=C1CC[C@@H](C(=O)O)N1; βAla = NCCC(=O)O

Legend:
[1] = tested on: cells of the spleen forming rosettes (RFC); experiment: Rosette test in vitro (thymic activity); type: cell-based, adult C 57/B1 6 mice; conditions: for Activity in the rosette test (control peptides): in vitro, control peptides of similar molecular weight
Protocol: The thymic activity of the polypeptide is established by incubation in a hemolysis tube with 3×10^6 cells of the spleen originating from adult C 57/B1 6 mice (supplied by the Centre d'Elevage des Animaux de Laboratoire of C.N.R.S. (45 Orleans, La Source), thymectomised 10 to 20 days previously. The thymectomy method is described by M. Dardenne and J. F. Bach in Immunology, 25, 343 (1973) on page 344. The contents of this article are incorporated herein by reference.
The incubation is carried out for 90 minutes at 37° C. in the presence of azathioprine (Az) at a concentration of 10 μg/ml.
On completion of the incubation, 12×10^6 red cells from sheep's blood (SRBC) are added to the cells in the test specimen. The cells in the specimen are centrifuged for 6 minutes at 200 g and carefully brought gently into suspension by rotation on a roller (diameter 10 cm) at a low speed (10 r.p.m.). The RFC are counted in a hematocytometer.
(1) Activity in vitro in the rosette test.

thymectomised mice [2] = experiment: Kinetics of the activity in the serum after injection of peptide without carboxymethyl cellulose; type: in vivo; conditions: 1 ng of polypeptide injected into thymectomised mice; active serum dilutions against time; FIGS. 1 to 3
Text: These kinetics have also been established for active products, but without any delay action, by way of comparison. The results of these tests have been established in the form of curves in FIGS. 1, 2 and 3 of the accompanying drawings.

[3] = tested on: rosette-forming cells of the spleen of thymectomised mice; experiment: Test in vivo on the spleen: correction of the reactivity of rosette-forming spleen cells to azathioprine; conditions: Table IV, quantity injected 0,1 ng, individual values
Protocol: (3) Correction of the abnormal reactivity of the cells forming the rosettes of the spleen with azathioprine in thymectomised mice 24 hours after injecting the peptide (0.1, 1 and 10 ng) bonded to the carboxymethyl cellulose.
The tests on the spleen were carried out by determining the quantity of azathioprine which is necessary for inhibiting the rosette-forming cells of the spleen of thymectomised mice after an established time (24 hours and possibly also 48 hours) after the injection of an established quantity of polypeptide (0.1, 1 or 10 ng).

antibodies = experiment: Bonding with the antibodies; type: binding; design: key: +: the peptide is bonded; -: is not bonded to the antibodies
Text: The suitability of the peptides for being bonded to the antibodies is indicated by the + and - symbols, which respectively signify that the peptide is bonded or is not bonded to the antibodies.

thymectomised mice [4] = experiment: Activity in vivo: study of the serum after injection of peptide absorbed on carboxymethyl cellulose
Protocol: The peptides active in vitro were also checked in tests carried out in vivo. Injected into 6 weeks old thymectomised mice and used 8 weeks after the thymectomy, the peptides produce the appearance at the 15th minute in the serum of a biological activity conferring the sensitivity to the azothioprine of the spleen cells forming rosettes. […] (2) Activity in vivo (study of the serum 2 hours and 4 hours after injection into thymectomised mice in different quantities (0.1, 1 or 10 ng) of peptide absorbed on carboxymethyl cellulose). The results of the tests in vivo on the serum and on the spleen, set out in Tables II, III and IV, were established by the procedure as previously indicated.

Compound: substance P (RPKPQQFFGLM; ends and bridges not checked; UniProt P20366 58-68, looked up) [control peptide of similar molecular weight]
Activity in the rosette test (control peptides) [1]: inactive

Compound: Cn1cnc([N+](=O)[O-])c1Sc1ncnc2nc[nH]c12 [azathioprine]
IC50 ([1]; Mus musculus, spleen cells coming from normal mice, read-out: minimal concentration of Az inhibiting 50% of the cells of the spleen forming rosettes (RFC)): 1 mg/L (≈ 3.61 µM)

Compound: angiotensine
Activity in the rosette test (control peptides) [1]: inactive

Time of the activity peak in the serum after injection (thymectomised mice [2]): ~45 min
Compound: CC(=O)NCCCC[C@H](NC(=O)[C@H](C)NC(=O)[C@@H]1CCC(=O)N1)C(=O)N[C@@H](CO)C(=O)N[C@@H](CCC(N)=O)C(=O)NCC(=O)NCC(=O)N[C@@H](CO)C(=O)N[C@@H](CC(N)=O)C(=O)O [Peptide 62, PyroGlu-Ala-Lys(Ac)-Ser-Gln-Gly-Gly-Ser-Asn] ([pGlu]AK(Ac)SQGGSN-OH)

Compound: C[C@H](NC(=O)[C@@H]1CCC(=O)N1)C(=O)N[C@@H](CCCCN)C(=O)N[C@@H](CO)C(=O)N[C@@H](CCC(N)=O)C(=O)NCC(=O)NCC(=O)N[C@@H](CO)C(=O)NCCC(N)=O [Peptide 86, PyroGlu-Ala-Lys-Ser-Gln-Gly-Gly-Ser-β-Ala-NH2] ([pGlu]AKSQGGS[βAla]-NH2)
Spleens (test in vivo) 24 hours after injection: Quantity of azathioprine [3]: 12 µg
Activity in vitro ([1]; Table I, rosette test): + (active)
Active concentration (ng/ml) (test in vitro) ([1]; Table III, rosette test, azathioprine 10 μg/ml, 90 minutes at 37° C.): 7.10^-3 ng/ml
Bonding with the antibodies (antibodies; Table I): -
Bonding with the antibodies (antibodies; Table IV): -
Activity in vivo (thymectomised mice [4]; Table I, thymectomised mice): + (active)
Active or inactive polypeptide (conclusion from Tables I to IV) (thymectomised mice [4]; overall judgement of the tests in vitro and in vivo): active

Time of the activity peak in the serum after injection (thymectomised mice [2]): ~60 min
Compound: C[C@H](NC(=O)[C@@H]1CCC(=O)N1)C(=O)N[C@@H](CCCCN)C(=O)N[C@@H](CO)C(=O)N[C@@H](CCC(N)=O)C(=O)N[C@H](C)C(=O)NCC(=O)N[C@@H](CO)C(=O)N[C@@H](CC(N)=O)C(=O)O [Peptide 89, PyroGlu-Ala-Lys-Ser-Gln-D-Ala-Gly-Ser-Asn] ([pGlu]AKSQ[dA]GSN-OH)
